In series [1] the target is Vascular endothelial growth factor receptor 2 (Homo sapiens) (UniProt P35968). The series can be described thus: Inhibition of human VEGFR2 at 1 uM using poly[Glu:Tyr] (4:1) as substrate in presence of [gamma-33P]ATP relative to control.
The nature of series [2]: Oral bioavailability in Sprague-Dawley rat at 2 mg/kg by LC/MS/MS analysis. The class given is ADME, organism-based. Conditions: in vivo; call rule not given here.
A short description of series [3]: Cmax in Beagle dog at 2 mg/kg, po by LC/MS/MS analysis. It counts as ADME, organism-based, Canis lupus familiaris. The arrangement: dose 2 mg/kg, route oral. To be noted: in vivo.
A short description of series [4]: Oral bioavailability in Beagle dog at 2 mg/kg by LC/MS/MS analysis. It counts as ADME, organism-based, Canis lupus familiaris. Conditions: in vivo.
Series [5] can be described thus: Cmax in Sprague-Dawley rat at 200 mg/kg, po using crystalline sample during 7 day dose ranging study by LC/MS/MS analysis. It counts as ADME, organism-based. Details: dose 200 mg/kg, route oral. Conditions: in vivo.
The nature of series [6]: Dose normalized AUC in Sprague-Dawley rat at 20 mg/kg, po using crystalline sample during 7 day dose ranging study by LC/MS/MS analysis. It counts as ADME, organism-based. Conditions: in vivo, 168 h.
Series [7] in a line: AUC in Sprague-Dawley rat assessed as 2-((4-(Benzo[d]thiazol-5-ylamino)-6-(tert-butylsulfonyl)quinazolin-7-yl)oxy)ethanol level at 2 mg/kg, po by LC/MS/MS analysis. The class given is ADME, organism-based. Conditions: in vivo.
The nature of series [8]: Drug uptake in po dosed Sprague-Dawley rat systemic circulation by LC/MS/MS analysis. It counts as ADME, organism-based. Conditions: in vivo.
The target of series [9] is Voltage-gated inwardly rectifying potassium channel KCNH2 (Homo sapiens, UniProt Q12809). The series can be described thus: Inhibition of human ERG (1159 residues) expressed in CHOK1 cells at -80 mV holding potential measured after 5 mins by QPatch electrophysiology method. The class given is cell-based.
Series [10] deals with T1, Nucleotide-binding oligomerization domain-containing protein 2 (Homo sapiens, UniProt Q9HC29). The series is described as follows: Inhibition of human NOD2 expressed in HEK293 cells assessed as reduction in MDP-induced IL8 production measured after 22 hrs by HTRF fluorescence assay. It counts as cell-based. (In general: TR-FRET usually uses a lanthanide donor and a delayed reading to cut background.)

Series [11] deals with T1, Nucleotide-binding oligomerization domain-containing protein 2. The series can be described thus: Inhibition of NOD2 in human monocytes assessed as reduction in MDP-induced TNFalpha production preincubated for 30 mins followed by MDP-stimulation and measured after 6 hrs by immunoassay. The class given is cell-based.
Series [12] deals with T2, Interleukin-1 receptor type 1 (Homo sapiens, UniProt P14778).
T2 sequence (P14778 whole entry): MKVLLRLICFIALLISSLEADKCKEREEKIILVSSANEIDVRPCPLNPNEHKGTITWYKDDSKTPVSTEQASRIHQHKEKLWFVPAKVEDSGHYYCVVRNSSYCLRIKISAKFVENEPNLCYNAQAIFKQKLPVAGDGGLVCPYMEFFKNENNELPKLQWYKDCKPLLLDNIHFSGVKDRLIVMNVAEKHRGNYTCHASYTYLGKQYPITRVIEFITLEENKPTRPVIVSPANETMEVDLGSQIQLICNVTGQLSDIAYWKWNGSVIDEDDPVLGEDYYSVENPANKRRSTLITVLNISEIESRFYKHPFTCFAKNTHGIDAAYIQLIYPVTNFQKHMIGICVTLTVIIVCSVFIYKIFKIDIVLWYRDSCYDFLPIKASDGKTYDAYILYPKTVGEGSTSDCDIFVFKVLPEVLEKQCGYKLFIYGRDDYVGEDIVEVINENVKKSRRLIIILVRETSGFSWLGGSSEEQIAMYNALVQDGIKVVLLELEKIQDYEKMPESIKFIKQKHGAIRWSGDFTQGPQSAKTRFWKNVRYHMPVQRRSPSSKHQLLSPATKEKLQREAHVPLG
The series can be described thus: Inhibition of IL1R in human monocytes assessed as reduction in IL1beta-induced TNFalpha production. It counts as cell-based.

In a further series the target is Toll-like receptor 2 (Homo sapiens, UniProt O60603). The series is described as follows: Inhibition of TLR2 in HEK293 cells assessed as reduction in Pam2CSK4-induced IL8 production. It counts as cell-based.
Series [13] is described as follows: Cmax in Sprague-Dawley rat assessed as 2-((4-(Benzo[d]thiazol-5-ylamino)-6-(tert-butylsulfonyl)quinazolin-7-yl)oxy)ethanol level at 2 mg/kg, po by LC/MS/MS analysis. To be noted: in vivo. The arrangement: dose 2 mg/kg, route oral. The class given is ADME, organism-based.
The nature of series [14]: Volume of distribution at steady state in Sprague-Dawley rat assessed as 2-((4-(Benzo[d]thiazol-5-ylamino)-6-(tert-butylsulfonyl)quinazolin-7-yl)oxy)ethanol level at 2 mg/kg, po or 1.1 mg/kg, iv by LC/MS/MS analysis. It counts as ADME, organism-based. To be noted: in vivo.
The nature of series [15]: Oral bioavailability in Sprague-Dawley rat assessed as 2-((4-(Benzo[d]thiazol-5-ylamino)-6-(tert-butylsulfonyl)quinazolin-7-yl)oxy)ethanol level at 2 mg/kg by LC/MS/MS analysis. The class given is ADME, organism-based. Conditions: in vivo.
Series [16] is described as follows: Terminal half life in Gottingen minipig assessed as 2-((4-(Benzo[d]thiazol-5-ylamino)-6-(tert-butylsulfonyl)quinazolin-7-yl)oxy)ethanol level at 2 mg/kg, po or 1 mg/kg, iv by LC/MS/MS analysis. It counts as ADME, organism-based, Sus scrofa. Conditions: pig, in vivo.
Series [17] is described as follows: Half life in dog intestinal S9 fraction. It counts as ADME, subcellular, Canis lupus familiaris, Intestine.
A short description of series [18]: Solubility of the compound in FaSSIF measured after 4 hrs using hemi-calcium salt form of compound. The class given is physicochemical.
Series [19] in a line: Drug uptake in Sprague-Dawley rat systemic circulation at 2 mg/kg, po or 1.1 mg/kg, iv by LC/MS/MS analysis. The class given is ADME, organism-based. To be noted: in vivo.
Series [20] is described as follows: Drug uptake in Beagle dog systemic circulation at 2 mg/kg, po or 0.9 mg/kg, iv by LC/MS/MS analysis. It counts as ADME, organism-based, Canis lupus familiaris. Conditions: in vivo.
The nature of series [21]: Prodrug conversion in Han Wistar rat brain assessed as 2-((4-(Benzo[d]thiazol-5-ylamino)-6-(tert-butylsulfonyl)quinazolin-7-yl)oxy)ethanol formation at 2 mg/kg, iv administered as infusion for 4 hrs. The class given is ADME, organism-based. To be noted: in vivo.
Series [22] is described as follows: Drug uptake in Han Wistar rat brain at 2 mg/kg, iv administered as infusion for 4 hrs. To be noted: in vivo. The class given is ADME, organism-based.
A short description of series [23]: Prodrug conversion in rat hepatocytes assessed as (2S,3S,4S,5R,6R)-6-(2-(4-(benzo[d]thiazol-5-ylamino)-6-(tert-butylsulfonyl)quinazolin-7-yloxy)ethoxy)-3,4,5-trihydroxytetrahydro-2H-pyran-2-carboxylic acid formation at 20 uM measured after 4 hrs. The class given is ADME, cell-based, Hepatocyte.
The nature of series [24]: Prodrug conversion in rat hepatocytes assessed as 2-((4-(Benzo[d]thiazol-5-ylamino)-6-(tert-butylsulfonyl)quinazolin-7-yl)oxy)ethanol formation at 20 uM measured after 4 hrs. The class given is ADME, cell-based, Hepatocyte.
Series [25] in a line: Prodrug conversion in minipig hepatocytes assessed as 2-((4-(Benzo[d]thiazol-5-ylamino)-6-(tert-butylsulfonyl)quinazolin-7-yl)oxy)ethanol formation at 20 uM measured after 4 hrs. It counts as ADME, cell-based, Sus scrofa, Hepatocyte. Conditions: pig.
Series [26] can be described thus: Prodrug conversion in minipig hepatocytes assessed as oxidation at 20 uM measured after 4 hrs. The class given is ADME, cell-based, Sus scrofa, Hepatocyte. Conditions: pig.
A short description of series [27]: Prodrug conversion in minipig hepatocytes assessed as benzothiazole ring opening at 20 uM measured after 4 hrs. It counts as ADME, cell-based, Sus scrofa, Hepatocyte. Conditions: pig.
A short description of series [28]: Prodrug conversion in human hepatocytes assessed as 2-(4-(benzo[d]thiazol-5-ylamino)-6-(tert-butylsulfonyl)-1,2,3,4-tetrahydroquinazolin-7-yloxy)ethanol formation at 20 uM measured after 4 hrs. It counts as ADME, cell-based, Hepatocyte.
Series [29] is described as follows: Prodrug conversion in human hepatocytes assessed as 2-(4-(benzo[d]thiazol-5-ylamino)-6-(tert-butylsulfonyl)quinazolin-7-yloxy)acetic acid formation at 20 uM measured after 4 hrs. It counts as ADME, cell-based, Hepatocyte.
Series [30] in a line: Prodrug conversion in human hepatocytes assessed as oxidation at 20 uM measured after 4 hrs. The class given is ADME, cell-based, Hepatocyte.
The nature of series [31]: Prodrug conversion in human hepatocytes assessed as hydrogenation at 20 uM measured after 4 hrs. The class given is ADME, cell-based, Hepatocyte.

T1 sequence (Q9HC29 whole entry, the tested form may be a part): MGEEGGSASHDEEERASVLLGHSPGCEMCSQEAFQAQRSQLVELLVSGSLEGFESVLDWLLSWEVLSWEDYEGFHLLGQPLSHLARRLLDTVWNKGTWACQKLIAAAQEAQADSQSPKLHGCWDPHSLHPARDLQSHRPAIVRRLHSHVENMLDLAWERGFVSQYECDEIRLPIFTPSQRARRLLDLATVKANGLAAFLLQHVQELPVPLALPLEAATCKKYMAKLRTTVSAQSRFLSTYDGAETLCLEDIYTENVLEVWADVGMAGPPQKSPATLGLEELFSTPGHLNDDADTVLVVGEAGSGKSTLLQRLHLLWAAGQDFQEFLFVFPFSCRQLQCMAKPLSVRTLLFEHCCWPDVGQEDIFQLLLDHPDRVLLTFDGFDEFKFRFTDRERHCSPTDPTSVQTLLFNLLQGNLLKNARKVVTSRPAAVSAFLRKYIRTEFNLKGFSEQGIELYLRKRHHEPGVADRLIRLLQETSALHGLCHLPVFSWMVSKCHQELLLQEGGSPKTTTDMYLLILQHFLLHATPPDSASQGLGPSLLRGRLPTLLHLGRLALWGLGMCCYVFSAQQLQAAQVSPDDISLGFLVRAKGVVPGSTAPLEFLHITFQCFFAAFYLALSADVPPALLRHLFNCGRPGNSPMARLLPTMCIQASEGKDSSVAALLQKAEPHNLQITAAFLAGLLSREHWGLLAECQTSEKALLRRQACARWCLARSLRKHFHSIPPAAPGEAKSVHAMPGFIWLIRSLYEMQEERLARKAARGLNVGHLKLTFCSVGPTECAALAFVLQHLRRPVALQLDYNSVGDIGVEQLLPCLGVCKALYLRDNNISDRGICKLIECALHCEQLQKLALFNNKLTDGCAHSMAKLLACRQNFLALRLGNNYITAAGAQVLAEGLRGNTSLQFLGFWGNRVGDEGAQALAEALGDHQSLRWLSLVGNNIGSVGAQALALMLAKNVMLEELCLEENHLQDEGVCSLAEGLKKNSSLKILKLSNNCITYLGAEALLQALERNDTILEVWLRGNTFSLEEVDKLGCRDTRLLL
Chain of Voltage-gated inwardly rectifying potassium channel KCNH2 (Q12809 whole entry, the tested form may be a part): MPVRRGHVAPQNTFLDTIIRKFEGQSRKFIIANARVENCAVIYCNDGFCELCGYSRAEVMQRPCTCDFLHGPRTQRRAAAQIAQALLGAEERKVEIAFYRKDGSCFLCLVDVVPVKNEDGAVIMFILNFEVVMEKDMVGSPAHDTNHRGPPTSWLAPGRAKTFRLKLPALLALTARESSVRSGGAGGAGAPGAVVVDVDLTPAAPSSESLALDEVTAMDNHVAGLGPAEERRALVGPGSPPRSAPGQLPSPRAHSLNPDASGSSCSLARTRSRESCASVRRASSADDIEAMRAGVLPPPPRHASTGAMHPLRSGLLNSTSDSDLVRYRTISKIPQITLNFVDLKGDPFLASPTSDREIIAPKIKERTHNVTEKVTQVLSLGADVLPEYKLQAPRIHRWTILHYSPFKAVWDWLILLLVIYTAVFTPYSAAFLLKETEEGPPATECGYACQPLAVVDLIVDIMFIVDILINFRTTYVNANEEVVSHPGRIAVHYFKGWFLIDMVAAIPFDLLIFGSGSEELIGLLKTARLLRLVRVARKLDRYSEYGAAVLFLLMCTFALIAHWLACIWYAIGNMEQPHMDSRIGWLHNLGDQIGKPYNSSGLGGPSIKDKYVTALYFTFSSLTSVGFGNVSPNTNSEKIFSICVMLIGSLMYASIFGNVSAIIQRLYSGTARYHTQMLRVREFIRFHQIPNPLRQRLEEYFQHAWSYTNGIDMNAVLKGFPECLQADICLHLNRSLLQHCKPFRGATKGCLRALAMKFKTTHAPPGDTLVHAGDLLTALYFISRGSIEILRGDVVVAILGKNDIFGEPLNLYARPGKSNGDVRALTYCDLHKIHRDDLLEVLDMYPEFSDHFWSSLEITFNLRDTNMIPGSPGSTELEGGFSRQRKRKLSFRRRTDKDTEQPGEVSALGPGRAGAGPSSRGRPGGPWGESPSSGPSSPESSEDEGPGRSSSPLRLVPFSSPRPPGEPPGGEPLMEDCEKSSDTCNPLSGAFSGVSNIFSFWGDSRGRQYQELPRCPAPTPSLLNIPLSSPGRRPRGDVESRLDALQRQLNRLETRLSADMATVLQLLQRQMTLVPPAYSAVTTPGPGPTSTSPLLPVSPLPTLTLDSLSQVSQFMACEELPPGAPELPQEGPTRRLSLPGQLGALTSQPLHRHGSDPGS
Chain of Toll-like receptor 2 (O60603 whole entry): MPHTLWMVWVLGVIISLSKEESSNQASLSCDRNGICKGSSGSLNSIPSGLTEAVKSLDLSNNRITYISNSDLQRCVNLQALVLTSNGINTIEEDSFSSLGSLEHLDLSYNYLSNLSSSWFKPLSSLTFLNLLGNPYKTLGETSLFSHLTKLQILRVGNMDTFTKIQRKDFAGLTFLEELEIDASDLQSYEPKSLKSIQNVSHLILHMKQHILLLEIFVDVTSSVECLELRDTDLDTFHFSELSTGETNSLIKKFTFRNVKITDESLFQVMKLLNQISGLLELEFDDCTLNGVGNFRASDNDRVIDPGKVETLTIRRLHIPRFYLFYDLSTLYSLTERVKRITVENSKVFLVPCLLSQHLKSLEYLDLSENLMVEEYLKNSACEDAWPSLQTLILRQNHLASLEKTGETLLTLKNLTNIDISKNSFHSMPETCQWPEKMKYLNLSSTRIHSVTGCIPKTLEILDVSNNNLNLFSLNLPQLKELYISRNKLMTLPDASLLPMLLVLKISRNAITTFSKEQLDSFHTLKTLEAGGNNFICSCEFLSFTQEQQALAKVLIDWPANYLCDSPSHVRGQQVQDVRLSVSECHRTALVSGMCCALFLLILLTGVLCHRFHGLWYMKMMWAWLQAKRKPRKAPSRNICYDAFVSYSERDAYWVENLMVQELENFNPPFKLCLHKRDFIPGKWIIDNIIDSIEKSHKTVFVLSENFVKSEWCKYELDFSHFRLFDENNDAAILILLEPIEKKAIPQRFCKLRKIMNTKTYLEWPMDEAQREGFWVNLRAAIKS
Chain of Vascular endothelial growth factor receptor 2 (Homo sapiens) (P35968 whole entry): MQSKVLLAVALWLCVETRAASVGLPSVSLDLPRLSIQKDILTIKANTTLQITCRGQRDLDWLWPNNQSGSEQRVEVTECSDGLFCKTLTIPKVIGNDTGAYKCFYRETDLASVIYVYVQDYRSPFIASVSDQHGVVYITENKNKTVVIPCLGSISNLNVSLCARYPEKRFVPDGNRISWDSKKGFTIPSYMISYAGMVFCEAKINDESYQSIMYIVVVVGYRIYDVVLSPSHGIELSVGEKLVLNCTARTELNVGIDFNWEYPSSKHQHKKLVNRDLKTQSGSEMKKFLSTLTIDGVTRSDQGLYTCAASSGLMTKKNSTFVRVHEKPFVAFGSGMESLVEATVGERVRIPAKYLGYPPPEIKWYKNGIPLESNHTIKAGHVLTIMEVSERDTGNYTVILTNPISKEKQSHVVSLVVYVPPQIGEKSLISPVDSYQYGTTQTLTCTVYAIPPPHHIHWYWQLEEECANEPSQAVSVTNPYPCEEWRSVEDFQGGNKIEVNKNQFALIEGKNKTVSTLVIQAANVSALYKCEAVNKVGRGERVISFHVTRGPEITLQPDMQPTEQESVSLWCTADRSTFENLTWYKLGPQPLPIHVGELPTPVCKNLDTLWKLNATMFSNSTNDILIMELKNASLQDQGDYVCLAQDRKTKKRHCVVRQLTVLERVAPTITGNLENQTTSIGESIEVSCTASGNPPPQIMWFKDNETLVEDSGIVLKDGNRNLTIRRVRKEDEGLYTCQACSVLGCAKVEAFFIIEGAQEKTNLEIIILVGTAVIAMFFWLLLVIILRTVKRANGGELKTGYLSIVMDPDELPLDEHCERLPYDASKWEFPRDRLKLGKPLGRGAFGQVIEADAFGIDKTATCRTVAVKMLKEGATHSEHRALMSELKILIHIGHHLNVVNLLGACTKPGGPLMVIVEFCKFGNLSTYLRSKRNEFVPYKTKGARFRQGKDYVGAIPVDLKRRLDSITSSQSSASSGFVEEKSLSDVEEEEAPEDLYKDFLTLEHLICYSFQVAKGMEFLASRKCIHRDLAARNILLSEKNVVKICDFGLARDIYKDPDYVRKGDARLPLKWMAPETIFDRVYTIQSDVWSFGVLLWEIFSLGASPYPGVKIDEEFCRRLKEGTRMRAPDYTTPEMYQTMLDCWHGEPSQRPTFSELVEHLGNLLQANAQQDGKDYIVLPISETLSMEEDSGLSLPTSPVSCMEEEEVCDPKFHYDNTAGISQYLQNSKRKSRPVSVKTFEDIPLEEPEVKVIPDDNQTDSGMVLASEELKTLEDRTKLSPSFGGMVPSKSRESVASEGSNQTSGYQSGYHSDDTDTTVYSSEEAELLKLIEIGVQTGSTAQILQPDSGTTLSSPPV

With `CC(C)(C)S(=O)(=O)c1cc2c(Nc3ccc4scnc4c3)ncnc2cc1OCCO`, the inhibition – broadly, the share of the control response that was lost under treatment – is 70 to 90% in series [1], “Dose-dependent effect” in [10] and “Dose-dependent effect” in series [11]. In addition, the results for the bioavailability in series [2] and in series [4] were 39% and 57%, respectively. Also, the Cmax – broadly, the highest concentration seen after dosing – in [3] was 470 ng/mL; in series [5], 4900 ng/mL. Further, in series [6], the AUC/dose is 0.44 kg·h/L. The area under the curve (AUC) (usually the area under the concentration-time curve, a measure of exposure) in [7] worked out at 460 ng·h/mL. Besides, the Drug uptake result in series [8] is recorded as “Not Active”. Moreover, the IC50 (usually the point on the concentration scale where inhibition reaches its midpoint) was more than 30 µM in series [9], 0.004 µM in series [10], more than 10 µM in series [12] and more than 10 µM at Toll-like receptor 2.

On to `CC(C)(C)S(=O)(=O)c1cc2c(Nc3ccc4scnc4c3)ncnc2cc1OCCOP(=O)(O)O.[CaH2]`, for which the exposure (AUC) in [7] was 580 ng·h/mL. The Drug uptake entry in [8], in [19], in series [20] and in series [22] was “Not Active” in each case. The half-inhibitory concentration (IC50) in series [9] was more than 30 µM. For the same molecule, the peak concentration (Cmax) in [13] was 170 ng/mL. For the same molecule, the Vdss in series [14] is 2.1 L/kg. For the same molecule, the F in series [15] is given as 77%. Further, the “beta t1/2” value in series [16] amounted to 252 min. For the same molecule, the half-life (usually the time in which the quantity being followed falls by half) in series [17] is 8 min. In [18], the solubility (commonly how much of the substance goes into solution per volume) at 4 h is 130 µg/mL. The Drug metabolism entry in [21], in series [23], in series [24], in [25], in series [26] and in series [27] was “Metabolite_Detected” in each case. For the same molecule, the Drug metabolism entry in [28], in series [29], in series [30] and in series [31] was “Metabolite_Detected” throughout.

The record behind these values is ChEMBL document CHEMBL4364295, “Discovery of a First-in-Class Receptor Interacting Protein 2 (RIP2) Kinase Specific Clinical Candidate, 2-((4-(Benzo[d]thiazol-5-ylamino)-6-(tert-butylsulfonyl)quinazolin-7-yl)oxy)ethyl Dihydrogen Phosphate, for the Treatment of Inflammatory Diseases” (J Med Chem, 2019).
